We go through seven compounds from US20070287676A1, “Diagnosis and treatment of endometriosis” (priority 2006, published 2007).

For one series, the system named is endometriotic cells. As to the kind of experiment: Suppression of growth and inflammation of endometriotic cells. In kind it is cell-based. The conditions noted are these: used alone.
For series [1], the system named is patients diagnosed with adenomyosis. As to the kind of experiment: Pilot study of off-label valproic acid in adenomyosis. In kind it is in vivo, human. As to conditions: for relief of dysmenorrhea reported by patients: 3 patients. The text has this: After informed consent, we recruited three patients diagnosed with adenomyosis (FIG. 28). All three patients had moderate to severe dysmenorrehea. They were all married and parous, and had normal menstrual cycles (28-30 days). […] During the recruitment, all patients were offered the option of hysterectomy or the chance to try an experimental drug. They all chose to try the drug and were all given the full explanation of the experimental nature of this study and possible risks associated with it. Approval for this pilot study was obtained from the local ethics committee at Shanghai OB/GYN Hospital, Fudan University. The diagnosis of adenomyosis of all three patients was made based on symptomology, pelvic examination and vaginal ultrasound evaluation by experienced physicians (FIG. 28). […] The treatment was terminated at the end of the 3rd month after taking the drug and the patients were followed up for an additional 3 months. During treatment, clinical signs, symptoms and ultrasound evaluation were closely monitored. Blood counts and biochemistries including liver function tests, ammonium and coagulation studies were performed monthly.

Series [2] is described as follows: Pilot study: safety, tolerability and laboratory monitoring. It counts as in vivo, human. The text has this:
The diagnosis of adenomyosis of all three patients was made based on symptomology, pelvic examination and vaginal ultrasound evaluation by experienced physicians (FIG. 28). […] The treatment was terminated at the end of the 3rd month after taking the drug and the patients were followed up for an additional 3 months. During treatment, clinical signs, symptoms and ultrasound evaluation were closely monitored. Blood counts and biochemistries including liver function tests, ammonium and coagulation studies were performed monthly.

The next series has as its system endometrial cells. The conditions noted are these: immortalized human endometrial stromal cells; cited from earlier work.
In series [3] the test system is endometrial stromal cells. As to conditions: in vitro; cited from earlier work.
Series [4] deals with YHES cells (immortalized human endometrial stromal cell line). Nature of the series: MTT cell proliferation assay in YHES cells. In kind it is cell-based. As to conditions: 48 hr; for increased cell proliferation: E2 and P pretreated, vs control. The protocol: An immortalized human endometrial stromal cell line was maintained following Krikun et al. (Krikun et al. 2004 Endocrinology 145:2291-6). Cells were maintained in phenol red-free DMEM/F12 (Gibco, CA) medium supplemented with 10% charcoal-dextran stripped FBS (Biomeda, CA), 1 μl/ml sodium pyruvate (Gibco, CA) and 1× Pen/Strep/Fungizone (Gibco, CA), at 37° C. with 5% C02 in a humidified incubator.
(§1) The YHES cells were harvested by trypsinization and seeded in 96-well plate at ˜1×10^4 cells/well. The cells were allowed to attach to the plate for overnight at 37° C. with 5% C02 in a humidified incubator. Then they were pretreated with physiological concentration of E2 (10^-9M) and P (10^-7M) for 24 hr to maintain hormonal responsiveness. […] Cell growth was valuated by the MTT assay (ATCC, Manassas, Va.). MTT assay was performing according to the manufacturer's instructions, and in triplicate to generate mean values. Cell numbers in the untreated control were arbitrarily assigned as 1. The relative cell growth was expressed as fold increase/decrease relative to the control. Data were presented as mean values from three independently repeated experiments.

Series [5] concerns YHES cells pretreated with H2O2. As to the kind of experiment: H2O2-induced cell proliferation, MTT assay. It counts as cell-based, human. The conditions noted are these: H2O2 1 μM, 48 hours; for suppression of H2O2-induced cell proliferation: vs H2O2 only. The protocol:
MTT assay was performed after 48 hours of treatment.
as §1
The addition of H202 was meant to mimic the oxidative stress as reported in endometriosis. […] RU486 suppressed cell proliferation by 75% at the concentration of 100 μM.

For another series, the system named is YHES cells. Nature of the series: Long-term culture and morphology after treatment. In kind it is cell-based, human. The conditions noted are these: for recovery judged by morphology: four weeks after the treatment, TSA and RU486 at 100 μM. The text has this:
The micrographs of the first two rows were taken using 20× magnification, and those of the third row were taken using 10× magnification. The micrographs of the first row and the first two micrographs of second row were obtained using differential inference contrast (DIC) optic; the others were obtained without the DIC optic. […]

For series [6], the system named is AR. Nature of the series: AR mRNA expression by RT-PCR in treated YHES cells. It counts as cell-based, human. The conditions noted are these: for AR mRNA expression level vs untreated control: 8 h, 18 h and 36 h, TSA 10 μM, CDB 100 μM, NAC 10 mM, semi-quantitative RT-PCR; for AR expression: 36 h of treatment, real-time RT-PCR. The method, then:
(§2) The YHES cells were harvested by trypsinization and seeded in 12-well at 5×10^4 cells/well plates and were pretreated with E2 and P as described above. […] Total RNA was isolated from treated cells using TRIzol reagent (Invitrogen, Carlsbad, Calif.) according to the manufacturer's instructions. The integrity of total RNA was inspected on an agarose gel. One microgram of total RNA from each sample was treated with DNase I to remove potential DNA contamination and then reverse-transcribed using Superscript II Reverse Transcriptase (Invitrogen). First-strand cDNA obtained from RNA samples was stored at −80° C. until use. To measure the mRNA expression levels of AR, PR-A, PR-B, Fas and FasL in each cell culture, semi-quantitative PCR analysis was performed.
(§3) Quantitative real-time RT-PCR was carried out on an ABI 7900 DNA sequencer (Applied Biosystems), and monitored by SYBR Green I (Qiagen, Valencia, Calif.). The PCR products of the expected size were visualized on a 0.8% agarose gel. The relative mRNA level of each gene was calculated using relative quantitation of gene expression (Applied Biosystems, Foster City, Calif.) with 18s as an endogenous control. The reproducibility of the quantitative measurements was evaluated by two independent cDNA syntheses. The means and standard deviations of the replicated measurements were calculated and presented as mean ±s.d.

In a further series the test system is PR-A. As to the kind of experiment: PR-A mRNA expression by RT-PCR in treated YHES cells. The conditions noted are these: 8 h, 18 h and 36 h; TSA 10 μM, CDB 100 μM, NAC 10 mM; semi-quantitative RT-PCR. In kind it is cell-based, human. The protocol:
as §2, §3

Another series relates to PR-B. Nature of the series: PR-B mRNA expression by RT-PCR in treated YHES cells. As to conditions: 8 h, 18 h and 36 h; TSA 10 μM, CDB 100 μM, NAC 10 mM; semi-quantitative RT-PCR. It counts as cell-based, human. The method, then:
as §2, §3

For another series, the system named is Fas. As to the kind of experiment: Fas mRNA expression by RT-PCR in treated YHES cells. It counts as cell-based, human. The protocol:
as §2, §3

Series [7] relates to AR. Nature of the series: Western blot of AR protein in treated YHES cells. In kind it is cell-based, human. The conditions noted are these: 16 hrs; TSA 10 μM, CDB 100 μM, NAC 10 mM. The method, then:
Western blot analysis was performed to measure protein expression of β-actin, ERα, ERβ, and AR. […] Whole cell lysate was prepared as previously described (44) by using RIPA lysis buffer containing 50 mM Tris, pH 7.4, 150 mM NaCl, 12 mM EDTA, 1% Triton X-100, 0.5% sodium deoxycholate, and 0.1% SDS. To avoid degradation, a protease inhibitor cocktail III (Sigma) was added at 2%. Total protein was quantified using a BCA protein assay kit (Pierce, Rockford, Ill.). Ten microgram of total protein was separated by electrophoresis on 10% SDS-polyacrylamide gels. The protein was then transferred onto PVDF membranes (Milipore, Bedford, Mass.). […] The blot was then subsequently incubated with primary antibody rabbit anti-human ERα (Santa Cruz Biotechnology, CA), rabbit anti-human ERβ (Zymed Laboratories, South San Francisco, Calif.), rabbit anti-β-actin (Cell Signaling Technology, Beverly, Mass.), or rabbit ant-human AR (Santa Cruz Biotechnology, CA), respectively, in blocking solution (5% nonfat dry milk plus PBS) for 2 hr at room temperature. After washing with PBS plus 0.5% Tween-20, the membranes were then incubated with the secondary antibody goat anti-rabbit IgG (H+L)-HRP (Santa Cruz Biotechnology, CA) at 1:8000 dilution in blocking solution for 2 h at room temperature. […]

The mark [8] stands for this setting: 18 and 36 h after the treatment.

Regarding `Nc1ncn([C@@H]2O[C@H](CO)[C@@H](O)[C@H]2O)c(=O)n1` [5-azacytidine], the “effect of use alone on growth and inflammation” value with endometriotic cells is on record as “some effect in suppression of growth (but not inflammation)”.
Take `CCCC(CCC)C(=O)O` [VPA, valproic acid]: the “average reduction of uterus size” value in [1] (end of the 3-month treatment, three patients) amounted to 33%. In addition, the “uterus size by physical examination” value in series [1] (end of the 3rd month) is “slight reduction in uterus size in one patient but no change in the other two”. Besides, in series [1] (one month after taking VPA), the “pelvic and ultrasound examinations” value is listed as “no change in uterus size or other conditions”. Moreover, the “relief of dysmenorrhea reported by patients” value in series [1] (three months after taking the drug (end of treatment)) is “all three patients reported complete relief of pain without any need for pain-killers”; in series [1] (three months after taking the drug (end of treatment), listed as valproic acid), “all three recruited patients reported complete disappearance of dysmenorrhea”; in series [1] (two months after taking VPA, oral 500 mg b.i.d. then t.i.d.), 2 patients reported complete relief of dysmenorrehea with no need for pain-killers, and 1 reported much relieved pain. Besides, the “dysmenorrhea reported by patients” value in series [1] (three months after the discontinuation of the treatment) is 2 patients reported disappearance of dysmenorrehea, but 1 reported the return of the same symptom. For the same compound, the tolerability result in series [2] (3-month oral VPA) is recorded as “well tolerated”. The “serum level of testosterone vs normal range” value in [2] (end of three month after taking VPA) is reported as “within the normal range”. The “liver function and other biochemistries” value in series [2] (monthly during treatment, all cases) was “remained normal”. The “effect on cell cycle” value with endometrial cells is listed as “induce cell cycle arrest”. Besides, in series [3], the effect on proliferation entry was “suppressing proliferation of endometrial and endometriotic cells in vitro”.
Consider `CC#C[C@]1(O)CC[C@H]2[C@@H]3CCC4=CC(=O)CCC4=C3[C@@H](c3ccc(N(C)C)cc3)C[C@@]21C` [RU486], for which the “reduction of cell proliferation as compared with controls” value in [4] (100 μM) is recorded as above 95%. Besides, the “suppression of H2O2-induced cell proliferation” value in series [5] (100 μM) was found to be 75%.
For `C[C@]12CC[C@@H]3c4ccc(O)cc4C[C@@H](CCCCCCCCC[S+]([O-])CCCC(F)(F)C(F)(F)F)[C@H]3[C@@H]1CC[C@@H]2O` (stereo partly shown) [ICI, ICI 182780], in [4] (0.1 μM), the “increase in proliferation as compared with the control group” value is on record as “about 40%”. Also, the “effect on cell proliferation” value in series [4] (across 100, 10, 1, 0.1 μM) was “no statistically significant reduction in proliferation”. Moreover, the “effect on H2O2-induced cell proliferation” value in [5] (100 μM) is reported as “did not significantly inhibit”.
In the case of `OO` [H2O2], the increased cell proliferation is listed as 18% in series [4] (1 μM) and 22% in series [4] (10 μM). Also, the “effect on cell proliferation” value in series [4] (100 μM (highest concentration)) is reported as “induced inhibition of proliferation”.
With `CC(=O)O[C@]1(C(C)=O)CC[C@H]2[C@@H]3CCC4=CC(=O)CCC4=C3[C@@H](c3ccc(N(C)C)cc3)C[C@@]21C` [CDB, CDB-2914], the “effect on cell proliferation” value in [4] (10 μM or lower (10, 1, 0.1 μM)) is “statistically non-significant inhibition of cell proliferation”; in series [4] (100 μM (highest concentration)), “significant suppression of cell proliferation”. In series [5] (100 μM), the “suppression of H2O2-induced cell proliferation” value stood at 49%. In addition, the cell morphology result in the series on YHES cells (24 h after the treatment) is reported as “signs of apparent apoptosis”. In the series with YHES cells, the “recovery judged by morphology” value is on record as “apparently recovered”. Further, the “AR mRNA expression level vs untreated control” value in the series on AR [6] is on record as “increased”. The AR expression entry with AR [6] is on record as “maintained the increased expression”. Moreover, the “PR-A mRNA expression level vs untreated control” value in the series with PR-A is reported as “increased”. For the same compound, the “PR-B mRNA expression level vs untreated control” value in the series with PR-B was “increased”. The Fas expression result in the series on Fas (setting [8]) is “decreased”; with Fas (8 h after the treatment), “increased”. Further, the “AR protein level vs control group” value in the series on AR [7] was “increased”.
For `CC(=O)N[C@@H](CS)C(=O)O` [NAC, N-acetylcysteine], the suppression of proliferation stood at 35% in [4] (10 mM) and 50% in [4] (30 mM). Moreover, the “suppression of H2O2-induced cell proliferation” value in series [5] (10 mM) is 63%. For the same compound, the “recovery judged by morphology” value in the series on YHES cells is on record as “apparently recovered”. Also, the “AR mRNA expression level vs untreated control” value with AR [6] is reported as “increased”. Further, in the series with AR [6], the AR expression result is “maintained the increased expression”. In addition, the “PR-A mRNA expression level vs untreated control” value in the series with PR-A was “increased”. Moreover, in the series with PR-B, the “PR-B mRNA expression level vs untreated control” value is recorded as “increased”. The results for the Fas expression result in the series with Fas (setting [8]) and with Fas (8 h after the treatment) were “decreased” and “increased”, respectively.
